Laboratory results taken from patent US7649012B2, “Compounds, pharmaceutical compositions containing same, and methods of use for same” (FASgen, Inc., priority 2002, dated 2010).
≈ marks a conversion by molar mass, not a printed value. Read-outs that look alike come from different tables or passages of the source.

How the values were obtained:
[1] = system: Escherichia coli (ATCC # 25922); assay: Broth microdilution MIC; format: cell-based; conditions: for MIC: Escherichia coli, ATCC25922
Method: (§1) A broth microdilution assay is used to assess the antimicrobial activity of the compounds. […] Microorganisms tested include Staphylococcus aureus (ATCC # 29213), Enterococcus faecalis (ATCC # 29212), Pseudomonas aeruginosa (ATCC # 27853), and Escherichia coli (ATCC # 25922). The assay is performed in two growth media, Mueller Hinton Broth and Trypticase Soy Broth. […] Colonies are suspended in sterile broth so that the turbidity matches the turbidity of a 0.5 McFarland standard. The inoculum is diluted 1:10 in sterile broth (Mueller Hinton or Trypticase soy) and 195 ul is dispensed per well of a 96-well plate. The compounds to be tested, dissolved in DMSO, are added to the wells in 5 ul volume at the following concentrations: 25, 12.5, 6.25, 3.125, 1.56 and 0.78 ug/ml in duplicate. Additional concentrations are tested if required. 5 ul of DMSO added to duplicate wells are the vehicle control. Serial dilutions of positive control compounds, vancomycin (E. faecalis and S. aureus) and tobramycin (E. coli and P. aeruginosa), are included in each run. After 24 hours of incubation at 37° C., plates are read at OD600 on a Molecular Devices SpectraMax Plus Spectrophotometer. Average OD600 values are computed using SOFTmax Pro Software (Molecular Devices) and MIC values are determined by linear regression analysis using Prism version 3.02 (Graph Pad Software, San Diego).

[2] = system: Pseudomonas aeruginosa (ATCC # 27853); assay: Broth microdilution MIC; format: cell-based; conditions: for PSAE/MH(MIC): Mueller Hinton Broth; for PSAE/Tsoy(MIC): Trypticase Soy Broth
Method: as §1

[3] = system: Enterococcus faecalis (ATCC # 29212); assay: Broth microdilution MIC; format: cell-based; conditions: for MIC: Enterococcus faecalis, ATCC29212
Method: as §1

[4] = system: Staphylococcus aureus (ATCC # 29213); assay: Broth microdilution MIC; format: cell-based; conditions: for MIC: Staphylococcus aureus, ATCC29213
Method: as §1

[5] = target: T1, purified human FAS (Homo sapiens, UniProt P49327); assay: Measurement of FAS enzymatic activity (NADPH oxidation), IC50; format: biochemical
T1 construct: Human FAS was purified from cultured ZR-75-1 human breast cancer cells; endogenous in cells; host or cells: ZR-75-1 human breast cancer cells (ATCC); endogenous enzyme purified by PEG precipitation and Mono Q anion exchange
Method: Human FAS was purified from cultured ZR-75-1 human breast cancer cells obtained from the American Type Culture Collection. The procedure, adapted from Linn et al., 1981, and Kuhajda et al., 1994, utilizes hypotonic lysis, successive polyethyleneglycol (PEG) precipitations, and anion exchange chromatography. […] The lysate is centrifuged in JA-20 rotor (Beckman) at 20,000 rpm for 30 minutes at 4° C. and the supernatant is brought to 42 ml with lysis buffer. A solution of 50% PEG 8000 in lysis buffer is added slowly to the supernatant to a final concentration of 7.5%. After rocking for 60 minutes at 4° C., the solution is centrifuged in JA-20 rotor (Beckman) at 15,000 rpm for 30 minutes at 4° C. […] After the rocking and centrifugation is repeated as above, the pellet is resuspended overnight at 4° C. in 10 ml of Buffer A (20 mM K2HPO4, pH 7.4). After 0.45 μM filtration, the protein solution is applied to a Mono Q 5/5 anion exchange column (Pharmacia). The column is washed for 15 minutes with buffer A at 1 ml/minute, and bound material is eluted with a linear 60-ml gradient over 60 minutes to 1 M KCl. […] FAS protein concentration is determined using the Coomassie Plus Protein Assay Reagent (Pierce) according to manufacturer's specifications using BSA as a standard. This procedure results in substantially pure preparations of FAS (>95%) as judged by Coomassie-stained gels. FAS activity is measured by monitoring the malonyl-CoA dependent oxidation of NADPH spectrophotometrically at OD340 in 96-well plates (Dils et al and […] et al, 1975). […] For each experiment, cerulenin (Sigma) is run as a positive control along with DMSO controls, inhibitors, and blanks (no FAS enzyme) all in duplicate. The assay is performed on a Molecular Devices SpectraMax Plus Spectrophotometer. The plate containing FAS, buffers, inhibitors, and controls are placed in the spectrophotometer heated to 37° C. Using the kinetic protocol, the wells are blanked on duplicate wells containing 100 μl of 100 mM K2HPO4, pH 6.5 and the plate is read at OD340 at 10 sec intervals for 5 minutes to measure any malonyl-CoA independent oxidation of NADPH. The plate is removed from the spectrophotometer and malonyl-CoA (67.4 μM, final concentration per well) and […] (61.8 μM, final concentration per well) are added to each well except to the blanks. The plate is read again as above with the kinetic protocol to measure the malonyl-CoA dependent NADPH oxidation. The difference between the Δ OD340 for the malonyl-CoA dependent and non-malonyl-CoA dependent NADPH oxidation is the specific FAS activity. Because of the purity of the FAS preparation, non-malonyl-CoA dependent NADPH oxidation is negligible. […] Graphs of Δ OD340 versus time are plotted by the SOFTmax PRO software (Molecular Devices) for each compound concentration.

[6] = Mueller Hinton Broth, read-out: EF/MH(MIC)
[7] = Trypticase Soy Broth, read-out: EF/Tsoy(MIC)
[8] = Mueller Hinton Broth, read-out: SA/MH(MIC)
[9] = Trypticase Soy Broth, read-out: SA/Tsoy(MIC)
[10] = Trypticase Soy Broth, read-out: Ecoli/Tsoy(MIC)

T1 sequence (P49327 whole entry): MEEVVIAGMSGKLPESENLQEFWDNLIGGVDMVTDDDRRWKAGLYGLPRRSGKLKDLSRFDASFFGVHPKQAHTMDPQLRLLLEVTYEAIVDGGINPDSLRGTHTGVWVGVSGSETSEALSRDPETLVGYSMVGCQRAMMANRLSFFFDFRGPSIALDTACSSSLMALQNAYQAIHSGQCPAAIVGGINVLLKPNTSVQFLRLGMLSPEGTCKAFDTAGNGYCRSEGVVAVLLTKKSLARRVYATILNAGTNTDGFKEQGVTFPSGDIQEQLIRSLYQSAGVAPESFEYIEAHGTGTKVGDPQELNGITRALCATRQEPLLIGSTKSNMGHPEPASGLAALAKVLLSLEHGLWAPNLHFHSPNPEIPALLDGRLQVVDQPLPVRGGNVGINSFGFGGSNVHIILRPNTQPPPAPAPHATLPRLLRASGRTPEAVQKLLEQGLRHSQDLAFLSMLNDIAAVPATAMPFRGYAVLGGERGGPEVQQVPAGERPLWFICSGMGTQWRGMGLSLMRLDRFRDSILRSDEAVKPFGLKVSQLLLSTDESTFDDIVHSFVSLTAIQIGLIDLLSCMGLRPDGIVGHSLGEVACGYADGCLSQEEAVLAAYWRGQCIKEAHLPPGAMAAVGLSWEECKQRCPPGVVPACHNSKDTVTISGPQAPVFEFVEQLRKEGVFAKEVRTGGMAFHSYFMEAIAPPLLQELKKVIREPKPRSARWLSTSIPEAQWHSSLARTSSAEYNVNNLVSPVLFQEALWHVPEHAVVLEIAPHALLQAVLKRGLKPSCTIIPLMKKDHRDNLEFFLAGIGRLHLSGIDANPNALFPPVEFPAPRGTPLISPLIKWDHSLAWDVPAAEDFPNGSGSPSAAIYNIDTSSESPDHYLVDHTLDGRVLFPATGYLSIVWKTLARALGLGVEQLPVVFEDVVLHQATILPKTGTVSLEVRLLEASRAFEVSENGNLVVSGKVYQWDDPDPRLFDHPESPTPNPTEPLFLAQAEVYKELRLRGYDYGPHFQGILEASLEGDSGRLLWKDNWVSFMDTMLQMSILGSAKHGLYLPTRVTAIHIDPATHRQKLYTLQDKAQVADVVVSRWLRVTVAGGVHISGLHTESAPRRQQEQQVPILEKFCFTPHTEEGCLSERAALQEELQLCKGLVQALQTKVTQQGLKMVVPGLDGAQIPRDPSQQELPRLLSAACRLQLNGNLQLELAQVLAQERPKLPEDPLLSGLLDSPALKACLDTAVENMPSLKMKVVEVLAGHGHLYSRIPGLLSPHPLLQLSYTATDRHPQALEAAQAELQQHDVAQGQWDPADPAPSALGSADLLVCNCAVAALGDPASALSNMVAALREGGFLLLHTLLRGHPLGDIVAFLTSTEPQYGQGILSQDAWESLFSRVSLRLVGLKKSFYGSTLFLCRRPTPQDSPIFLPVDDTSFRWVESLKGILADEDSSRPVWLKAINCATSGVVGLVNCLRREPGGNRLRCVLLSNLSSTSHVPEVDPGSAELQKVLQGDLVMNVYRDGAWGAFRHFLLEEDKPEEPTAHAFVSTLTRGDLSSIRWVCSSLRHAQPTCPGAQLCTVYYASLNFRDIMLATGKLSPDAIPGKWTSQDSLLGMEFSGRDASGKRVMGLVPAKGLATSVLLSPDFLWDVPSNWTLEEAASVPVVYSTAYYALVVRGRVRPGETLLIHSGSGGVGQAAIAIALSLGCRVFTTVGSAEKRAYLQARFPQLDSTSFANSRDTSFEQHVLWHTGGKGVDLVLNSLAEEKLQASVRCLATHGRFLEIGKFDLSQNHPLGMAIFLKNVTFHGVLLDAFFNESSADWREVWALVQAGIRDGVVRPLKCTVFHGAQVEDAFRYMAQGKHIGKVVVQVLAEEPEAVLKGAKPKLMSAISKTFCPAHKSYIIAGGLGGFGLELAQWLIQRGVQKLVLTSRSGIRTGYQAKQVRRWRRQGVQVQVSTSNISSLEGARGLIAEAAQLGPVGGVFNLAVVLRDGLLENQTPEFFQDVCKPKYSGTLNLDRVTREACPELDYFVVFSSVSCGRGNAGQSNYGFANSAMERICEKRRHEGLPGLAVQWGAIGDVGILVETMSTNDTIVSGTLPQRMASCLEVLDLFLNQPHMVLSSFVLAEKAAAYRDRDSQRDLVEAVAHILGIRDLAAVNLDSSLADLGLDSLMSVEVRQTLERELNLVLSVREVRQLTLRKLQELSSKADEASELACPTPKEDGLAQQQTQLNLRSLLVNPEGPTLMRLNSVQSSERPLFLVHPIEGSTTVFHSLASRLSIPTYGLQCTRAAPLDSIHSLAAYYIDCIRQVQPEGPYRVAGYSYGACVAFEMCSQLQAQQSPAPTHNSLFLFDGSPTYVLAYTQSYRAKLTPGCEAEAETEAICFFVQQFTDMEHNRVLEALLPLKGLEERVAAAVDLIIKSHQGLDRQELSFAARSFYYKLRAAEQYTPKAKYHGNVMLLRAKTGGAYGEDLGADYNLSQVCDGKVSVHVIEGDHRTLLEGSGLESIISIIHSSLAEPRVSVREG

SMILES	Ecoli/MH(MIC) ([1]; Mueller Hinton Broth)	Ecoli/Tsoy(MIC) ([1]; Trypticase Soy Broth)	PSAE/MH(MIC) [2]	PSAE/Tsoy(MIC) [2]	MIC [3, 6] [µg/mL]	MIC [3, 7] [µg/mL]	MIC [4, 8] [µg/mL]	MIC [4, 9] [µg/mL]	FAS(IC50) [5]	IC50 [5] [µM]	SA/MH(MIC) ([4]; Mueller Hinton Broth)	EF/Tsoy(MIC) ([3]; Trypticase Soy Broth)	MIC [1, 10] [µg/mL]	MIC ([1]; Mueller Hinton Broth, read-out: Ecoli/MH(MIC)) [µg/mL]	EF/MH(MIC) ([3]; Mueller Hinton Broth)	IC50 ([5]; unit inferred) [µM]
CCCCCCCCC1(C)SC(=O)C(C)=C1OC (centres unmarked)	Neg	Neg	Neg	Neg	208 (≈ 769 µM)	94 (≈ 348 µM)	132 (≈ 488 µM)	108 (≈ 399 µM)	Neg	–	–	–	–	–	–	–
CCCCCCCC[C@@]1(C)SC(=O)C=C1OCC(=O)O	Neg	Neg	Neg	Neg	77 (≈ 256 µM)	164 (≈ 546 µM)	98 (≈ 326 µM)	60 (≈ 200 µM)	Neg	–	–	–	–	–	–	–
COC1=CC(=O)SC1(C)Cc1ccccc1 (centres unmarked)	Neg	Neg	Neg	Neg	170 (≈ 726 µM)	189 (≈ 807 µM)	83 (≈ 354 µM)	129 (≈ 551 µM)	Neg	–	–	–	–	–	–	–
CCCCCCCCC1(C)SC(=O)C(C(C)O)=C1O (centres unmarked)	Neg	Neg	Neg	Neg	66 (≈ 230 µM)	21 (≈ 73.3 µM)	53.1 ± 0.5 (≈ 185 µM)	12 ± 0.5 (≈ 41.9 µM)	–	11.5	–	–	–	–	–	–
C=CCC1(C)C(=O)S[C@](C)(CCCCCCCC)C1=O (mixture of isomers)	Neg	Neg	Neg	Neg	133	91	–	97	Neg	–	Neg	–	–	–	–	–
CCCCCC[C@@]1(C)SC(=O)C=C1OCCCCCl (racemic)	Neg	Neg	Neg	Neg	117 (≈ 384 µM)	165 (≈ 541 µM)	164 (≈ 538 µM)	50 (≈ 164 µM)	Neg	–	–	–	–	–	–	–
CCCCCCCC[C@@]1(C)SC(=O)C=C1OCCCCCl (racemic)	Neg	Neg	Neg	Neg	64 (≈ 192 µM)	–	115 (≈ 345 µM)	134 (≈ 402 µM)	Neg	–	–	Neg	–	–	–	–
CCCCCC[C@@]1(C)SC(=O)C=C1OCC(=O)OCC (racemic)	Neg	–	Neg	Neg	21.3 (≈ 70.9 µM)	–	–	129 (≈ 429 µM)	Neg	–	Neg	Neg	281 (≈ 935 µM)	–	–	–
CCCCCC[C@@]1(C)SC(=O)C=C1OCC(=O)NCC(=O)OC (racemic)	–	Neg	Neg	Neg	–	–	69 (≈ 201 µM)	111 (≈ 323 µM)	Neg	–	–	Neg	–	156 (≈ 454 µM)	Neg	–
CCCCCC[C@@]1(C)SC(=O)C=C1OCC(=O)NCCCBr (racemic)	Neg	–	Neg	Neg	99 (≈ 252 µM)	121 (≈ 308 µM)	147 (≈ 375 µM)	237 (≈ 604 µM)	Neg	–	–	–	293 (≈ 747 µM)	–	–	–
CCCCCCCC[C@@]1(C)SC(=O)C=C1OC(=O)CC (racemic)	Neg	Neg	Neg	Neg	102 (≈ 342 µM)	147 (≈ 493 µM)	88 (≈ 295 µM)	62 (≈ 208 µM)	Neg	–	–	–	–	–	–	–
CCCCCCCC[C@@]1(C)SC(=O)C(C(=O)C(F)(F)F)=C1O (racemic)	–	–	Neg	Neg	–	–	54 (≈ 160 µM)	65 (≈ 192 µM)	–	–	–	–	–	–	–	121
CCCCCCCC[C@@]1(C)SC(=O)C=C1OC(=O)NC(C)C (racemic)	Neg	Neg	Neg	Neg	60 (≈ 183 µM)	64 (≈ 195 µM)	32 (≈ 97.7 µM)	39 (≈ 119 µM)	–	246	–	–	–	–	–	–
